From publication PMC11707430, “Novel antibiotics against Staphylococcus aureus without detectable resistance by targeting proton motive force and FtsH” (MedComm, 2025)

Key:
WP2uvrA (pKM101) = assay: Ames test; assay type: cell-based, E. coli
Protocol: (§1) Ames test. Genotoxicity of the compounds was determined by Ames Kit (IPHASE, Beijing, China) containing Salmonella typhimurium (TA97a, TA98, TA100, and TA1535) and E. coli WP2 uvrA (pKM101). Diclofenac and 2-aminofluorene were used as positive controls for TA97a and TA98. Methyl methanesulfonate and 2-aminofluorene were used as positive controls for TA100. Methyl methanesulfonate and 2-aminoanthracene were used as positive controls for WP2 uvrA (pKM101). NaN3 and 2-aminoanthracene were used as positive controls for TA1535. The bottom and top layer culture medium, and S9 mixed solution were prepared according to the manufacturer’s instructions. After incubation at 37℃ for 48h, the colonies were counted.

[1] = test system: Salmonella typhimurium (TA97a, TA98, TA100, and TA1535) and E. coli WP2 uvrA (pKM101); assay: Ames test (overall); assay type: cell-based
Protocol: as §1

With `Cc1nc2c(-c3ccc(Cl)cc3)cnn2c(O)c1Cc1ccccc1` [STK848198] the “CFU(x±SD)” value (WP2uvrA (pKM101); +S9, 25 μg/well) was 29 ±4 CFU, the “Fold Change” value (WP2uvrA (pKM101); +S9, 25 μg/well) was 0.9 and the “CFU(x±SD)” value (WP2uvrA (pKM101); +S9, 50 μg/well) was 26 ±4 CFU. The “Fold Change” value (WP2uvrA (pKM101); +S9, 50 μg/well) was 0.8, the “CFU(x±SD)” value (WP2uvrA (pKM101); +S9, 100 μg/well) was 26 ±3 CFU and the “Fold Change” value (WP2uvrA (pKM101); +S9, 100 μg/well) was 0.8. For the same compound, the “CFU(x±SD)” value (WP2uvrA (pKM101); +S9, 200 μg/well) was 29 ±3 CFU, the “Fold Change” value (WP2uvrA (pKM101); +S9, 200 μg/well) was 0.9 and the “CFU(x±SD)” value (WP2uvrA (pKM101); +S9, 400 μg/well) was 28 ±3 CFU. The “Fold Change” value (WP2uvrA (pKM101); +S9, 400 μg/well) was 0.9, the “CFU(x±SD)” value (WP2uvrA (pKM101); -S9, 25 μg/well) was 22±2 CFU and the “Fold Change” value (WP2uvrA (pKM101); -S9, 25 μg/well) was 1. The “CFU(x±SD)” value (WP2uvrA (pKM101); -S9, 50 μg/well) was 23±4 CFU, the “Fold Change” value (WP2uvrA (pKM101); -S9, 50 μg/well) was 1 and the “CFU(x±SD)” value (WP2uvrA (pKM101); -S9, 100 μg/well) was 21±1 CFU. For the same compound, the “Fold Change” value (WP2uvrA (pKM101); -S9, 100 μg/well) was 0.9, the “CFU(x±SD)” value (WP2uvrA (pKM101); -S9, 200 μg/well) was 24±3 CFU and the “Fold Change” value (WP2uvrA (pKM101); -S9, 200 μg/well) was 1. For the same compound, the “CFU(x±SD)” value (WP2uvrA (pKM101); -S9, 400 μg/well) was 23±1 CFU, the “Fold Change” value (WP2uvrA (pKM101); -S9, 400 μg/well) was 1 and the genotoxicity [1] was “no genotoxicity”.
